# pIC50: −log10 of the molar value.
# Assay: Antagonist activity at LPA1 in human lung fibroblasts assessed as inhibition of LPA-induced contraction after 18 hrs by 3D collagen gel contraction assay
row,Compound,pIC50
1,C[C@@H](OC(=O)Nc1c(-c2ccc(C3CCC(CC(=O)O)CC3)cc2)nnn1C)c1ccccc1 (stereo partly drawn),6.66
2,C[C@@H](OC(=O)Nc1c(-c2ccc(-c3ccc(C4(C(=O)O)CC4)cc3)cc2)nnn1C)c1cccc(C(F)(F)F)c1,6.47
3,C[C@@H](OC(=O)Nc1c(-c2ccc(-c3ccc(C4(C(=O)O)CC4)cc3)cc2F)nnn1C)c1ccccc1,7.70
4,C[C@@H](OC(=O)Nc1c(-c2ccc(-c3ccc(C4(C(=O)O)CC4)cc3)cc2)nnn1C)c1ccccc1,7.70
5,C[C@@H](OC(=O)Nc1c(-c2ccc(-c3ccc(CC(=O)O)cc3)cc2)nnn1C)c1ccccc1,6.41
6,Cc1nnn(-c2ccc(-c3ccc(C4(C(=O)O)CC4)cc3)cc2)c1NC(=O)O[C@H](C)c1ccccc1,7.00
7,Cc1noc(-c2ccc(-c3ccc(CC(=O)O)cc3)cc2)c1NC(=O)O[C@H](C)c1ccccc1,6.82
8,Cc1noc(-c2ccc(CSCCC(=O)O)cc2)c1NC(=O)OC(C)c1ccccc1Cl (stereo not drawn) [3-(4-(4-((1-(2-chlorophenyl)ethoxy)carbonylamino)-3-methylisoxazol-5-yl)benzylthio)propanoic acid],6.80

# — BindingDB's records for doi:10.1021/jm301022v (F. Hoffmann-La Roche, 2012)
